Test results reported in PubChem BioAssay AID258 (DTP/NCI, 2004).
Toxic doses and inconclusive results are not listed.

Tested on: CD2F1 mice, L1210 leukemia sc, survival T/C
Test: NCI In Vivo Anticancer Drug Screen. Data for tumor model L1210 Leukemia (subcutaneous) in CD2F1 (CDF1) mice
Settings: endpoint: median survival time, higher = longer survival
Procedure, shortened: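 Read-out: survival or tumor size. Value = treated (T) / vehicle control (C). Transplantable tumor in mice.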

Question: With `CS(=O)(=O)CS(=O)(=O)OCCCl` as the compound, how does the T/C (dose: 1.5 mg/kg/injection, schedule: Q03HX024 (ip), vehicle: other) read?
Answer: 106 % of control

Question: What about the T/C (dose: 3.1 mg/kg/injection, schedule: Q03HX008 (ip), vehicle: other) of the same compound?
Answer: 109 % of control

Question: And the T/C (dose: 3.1 mg/kg/injection, schedule: Q03HX024 (ip), vehicle: other)?
Answer: 113 % of control

Question: What about the T/C (dose: 6.2 mg/kg/injection, schedule: Q01DX005 (iv), vehicle: other) of the same compound?
Answer: 104 % of control

Question: And the T/C (dose: 6.2 mg/kg/injection, schedule: Q03HX008 (ip), vehicle: other)?
Answer: 115 % of control

Question: And the T/C (dose: 6.2 mg/kg/injection, schedule: Q03HX024 (ip), vehicle: other)?
Answer: 154 % of control

Question: And the T/C (dose: 11.8 mg/kg/injection, schedule: Q03HX008 (ip), vehicle: dextrose)?
Answer: 187 % of control

Question: What about the T/C (dose: 12.5 mg/kg/injection, schedule: Q01DX001 (iv), vehicle: other) of the same compound?
Answer: 106 % of control

Question: What about the T/C (dose: 12.5 mg/kg/injection, schedule: Q01DX005 (iv), vehicle: other) of the same compound?
Answer: 114 % of control

Question: And the T/C (dose: 12.5 mg/kg/injection, schedule: Q01DX009 (ip), vehicle: other)?
Answer: 122 % of control

Question: What about the T/C (dose: 12.5 mg/kg/injection, schedule: Q01DX009 (ip), vehicle: saline with Tween-80) of the same compound?
Answer: 123 % of control

Question: And the T/C (dose: 12.5 mg/kg/injection, schedule: Q03HX008 (ip), vehicle: other)?
Answer: 155 % of control

Question: What about the T/C (dose: 12.5 mg/kg/injection, schedule: Q03HX024 (ip), vehicle: other) of the same compound?
Answer: 240 % of control

Question: What about the T/C (dose: 12.5 mg/kg/injection, schedule: Q04DX003 (ip), vehicle: other) of the same compound?
Answer: 112 % of control

Question: What about the T/C (dose: 16.8 mg/kg/injection, schedule: Q03HX008 (ip), vehicle: dextrose) of the same compound?
Answer: 217 % of control

Question: And the T/C (dose: 24.0 mg/kg/injection, schedule: Q01DX009 (ip), vehicle: dextrose)?
Answer: 168 % of control

Question: And the T/C (dose: 24.0 mg/kg/injection, schedule: Q03HX008 (ip), vehicle: dextrose)?
Answer: 600 % of control

Question: What about the T/C (dose: 25.0 mg/kg/injection, schedule: Q01DX001 (ip), vehicle: other) of the same compound?
Answer: 111 % of control

Question: What about the T/C (dose: 25.0 mg/kg/injection, schedule: Q01DX001 (iv), vehicle: other) of the same compound?
Answer: 119 % of control

Question: And the T/C (dose: 25.0 mg/kg/injection, schedule: Q01DX009 (ip), vehicle: other)?
Answer: 176 % of control

Question: What about the T/C (dose: 25.0 mg/kg/injection, schedule: Q01DX009 (ip), vehicle: saline with Tween-80) of the same compound?
Answer: 154 % of control

Question: What about the T/C (dose: 25.0 mg/kg/injection, schedule: Q03HX008 (ip), vehicle: other) of the same compound?
Answer: 618 % of control

Question: What about the T/C (dose: 25.0 mg/kg/injection, schedule: Q03HX024 (ip), vehicle: other) of the same compound?
Answer: 618 % of control

Question: And the T/C (dose: 25.0 mg/kg/injection, schedule: Q04DX003 (ip), vehicle: other)?
Answer: 124 % of control

Question: What about the T/C (dose: 34.3 mg/kg/injection, schedule: Q01DX005 (ip), vehicle: dextrose) of the same compound?
Answer: 183 % of control

Question: And the T/C (dose: 34.3 mg/kg/injection, schedule: Q01DX009 (ip), vehicle: dextrose)?
Answer: 204 % of control

Question: What about the T/C (dose: 34.3 mg/kg/injection, schedule: Q03HX008 (ip), vehicle: dextrose) of the same compound?
Answer: 600 % of control

Question: And the T/C (dose: 49.0 mg/kg/injection, schedule: Q01DX001 (ip), vehicle: dextrose)?
Answer: 153 % of control

Question: And the T/C (dose: 49.0 mg/kg/injection, schedule: Q01DX002 (ip), vehicle: dextrose)?
Answer: 180 % of control

Question: What about the T/C (dose: 49.0 mg/kg/injection, schedule: Q01DX005 (ip), vehicle: dextrose) of the same compound?
Answer: 238 % of control

Question: And the T/C (dose: 49.0 mg/kg/injection, schedule: Q01DX009 (ip), vehicle: dextrose)?
Answer: 270 % of control

Question: What about the T/C (dose: 49.0 mg/kg/injection, schedule: Q03HX008 (ip), vehicle: dextrose) of the same compound?
Answer: 600 % of control

Question: And the T/C (dose: 50.0 mg/kg/injection, schedule: Q01DX001 (oral), vehicle: other)?
Answer: 107 % of control

Question: What about the T/C (dose: 50.0 mg/kg/injection, schedule: Q01DX005 (ip), vehicle: other) of the same compound?
Answer: 207 % of control

Question: What about the T/C (dose: 50.0 mg/kg/injection, schedule: Q01DX005 (iv), vehicle: other) of the same compound?
Answer: 226 % of control

Question: And the T/C (dose: 50.0 mg/kg/injection, schedule: Q01DX009 (ip), vehicle: other)?
Answer: 317 % of control

Question: And the T/C (dose: 50.0 mg/kg/injection, schedule: Q01DX009 (ip), vehicle: saline with Tween-80)?
Answer: 242 % of control

Question: What about the T/C (dose: 50.0 mg/kg/injection, schedule: Q01DX009 (oral), vehicle: other) of the same compound?
Answer: 168 % of control

Question: And the T/C (dose: 50.0 mg/kg/injection, schedule: Q03HX008 (ip), vehicle: other)?
Answer: 103 % of control

Question: What about the T/C (dose: 50.0 mg/kg/injection, schedule: Q04DX003 (ip), vehicle: other) of the same compound?
Answer: 209 % of control

Question: And the T/C (dose: 70.0 mg/kg/injection, schedule: Q01DX001 (ip), vehicle: dextrose)?
Answer: 180 % of control

Question: What about the T/C (dose: 70.0 mg/kg/injection, schedule: Q01DX002 (ip), vehicle: dextrose) of the same compound?
Answer: 290 % of control

Question: And the T/C (dose: 70.0 mg/kg/injection, schedule: Q01DX005 (ip), vehicle: dextrose)?
Answer: 600 % of control

Question: What about the T/C (dose: 70.0 mg/kg/injection, schedule: Q01DX009 (ip), vehicle: dextrose) of the same compound?
Answer: 600 % of control

Question: What about the T/C (dose: 100.0 mg/kg/injection, schedule: Q01DX001 (ip), vehicle: dextrose) of the same compound?
Answer: 240 % of control

Question: And the T/C (dose: 100.0 mg/kg/injection, schedule: Q01DX001 (ip), vehicle: other)?
Answer: 618 % of control

Question: And the T/C (dose: 100.0 mg/kg/injection, schedule: Q01DX001 (iv), vehicle: other)?
Answer: 618 % of control

Question: What about the T/C (dose: 100.0 mg/kg/injection, schedule: Q01DX002 (ip), vehicle: dextrose) of the same compound?
Answer: 600 % of control

Question: And the T/C (dose: 100.0 mg/kg/injection, schedule: Q01DX005 (ip), vehicle: dextrose)?
Answer: 600 % of control

Question: What about the T/C (dose: 100.0 mg/kg/injection, schedule: Q01DX005 (ip), vehicle: other) of the same compound?
Answer: 618 % of control

Question: What about the T/C (dose: 100.0 mg/kg/injection, schedule: Q01DX005 (iv), vehicle: other) of the same compound?
Answer: 618 % of control

Question: And the T/C (dose: 100.0 mg/kg/injection, schedule: Q01DX009 (ip), vehicle: dextrose)?
Answer: 600 % of control

Question: What about the T/C (dose: 100.0 mg/kg/injection, schedule: Q01DX009 (ip), vehicle: other) of the same compound?
Answer: 216 % of control

Question: And the T/C (dose: 100.0 mg/kg/injection, schedule: Q01DX009 (oral), vehicle: other)?
Answer: 240 % of control

Question: What about the T/C (dose: 100.0 mg/kg/injection, schedule: Q04DX003 (ip), vehicle: other) of the same compound?
Answer: 353 % of control

Question: And the T/C (dose: 142.9 mg/kg/injection, schedule: Q01DX001 (ip), vehicle: dextrose)?
Answer: 600 % of control

Question: What about the T/C (dose: 142.9 mg/kg/injection, schedule: Q01DX002 (ip), vehicle: dextrose) of the same compound?
Answer: 600 % of control

Question: What about the T/C (dose: 142.9 mg/kg/injection, schedule: Q01DX005 (ip), vehicle: dextrose) of the same compound?
Answer: 101 % of control

Question: And the T/C (dose: 200.0 mg/kg/injection, schedule: Q01DX001 (oral), vehicle: other)?
Answer: 618 % of control

Question: And the T/C (dose: 200.0 mg/kg/injection, schedule: Q01DX009 (oral), vehicle: other)?
Answer: 384 % of control

Question: Which results are given for `FC(F)(F)c1nc2nc(Cl)c(Cl)nc2[nH]1`?
Answer: T/C (dose: 30.0 mg/kg/injection, schedule: Q04DX003 (ip), vehicle: saline with Tween-80): 104 % of control; T/C (dose: 44.0 mg/kg/injection, schedule: Q04DX003 (ip), vehicle: saline with Tween-80): 106 % of control; T/C (dose: 66.0 mg/kg/injection, schedule: Q04DX003 (ip), vehicle: saline with Tween-80): 106 % of control
